Results published in patent US12075697B2, “Inert solution-processable molecular chromophores for organic electronic devices” (The Regents of the University of California, priority 2012, dated 2024).

How the values were obtained:
Assay type in all cases: physicochemical
[1] = Acid sensitivity: solution absorption profile as function of trifluoroacetic acid concentration; conditions: trifluoroacetic acid in chloroform, up to ten equivalents
Text: To probe acid sensitivity, the solution absorption profiles of p-DTS(FBTTh2)2 (see Scheme 1, above) and d-DTS(PTTh2)2
[drawing 71] a pyridine-containing analog, were monitored as function of concentration of trifluoroacetic acid.

[2] = Solution cyclic voltammetry (HOMO/LUMO levels)
Experimental: (§1) Optical properties were investigated using UV-visible absorption spectroscopy. […] Solution cyclic voltammetry measurements indicated the highest occupied molecular orbital (HOMO) and lowest unoccupied molecular orbital (LUMO) were −5.12 and −3.34 eV, respectively, and line up appropriately with the frontier molecular orbitals of common fullerene acceptors.
Electrochemistry: All electrochemical measurements were performed using CHI instrument model 730B in a standard three-electrode, one compartment configuration equipped with Ag/AgCl electrode, Pt wire and Glassy carbon electrode (dia. 3 mm), as the pseudo reference, counter electrode and working electrode respectively. Glassy carbon electrodes were polished with alumina. The cyclic voltammetry (CV) experiments were performed in anhydrous dichloromethane solution with ˜0.1 M tetrabutylammonium hexafluorophosphate (TBAPF6) as the supporting electrolyte at scan rate 50 mV/s unless otherwise stated. All electrochemical solutions were purged with dry Ar for 15 minutes to deoxygenate the system. Solution CV measurements were carried out with a small molecule concentration of ˜1 mg/mL in CH2Cl2. Ferrocene was used as an internal standard. The HOMO and LUMO levels were obtained by correlating the onsets (Eox^Fc/Fc+, Erd^Fc/Fc+) to the normal hydrogen electrode (NHE), assuming HOMO of Fc/Fc^+ to be 4.88 eV.

[3] = UV-visible absorption spectroscopy; conditions: for optical band gap: from λonset
Experimental: as §1
UV-vis: UV-visible spectroscopy were recorded using either a Beckman Coulter DU 800 series or Perkin Elmer Lambda 750 spectrophotometer at room temperature unless otherwise noted. All solution UV-vis experiments were run in CHCl3. Films were prepared by spin-coating CHCl3 or chlorobenzene solutions onto glass substrates. Films were annealed directly on a hot plate for 2 minutes.

In the case of `CCCCCCc1ccc(-c2ccc(-c3cc(F)c(-c4cc5c(s4)-c4sc(-c6c(F)cc(-c7ccc(-c8ccc(CCCCCC)s8)s7)c7nsnc67)cc4[Si]5(CC(CC)CCCC)CC(CC)CCCC)c4nsnc34)s2)s1` (stereo not drawn) [p-DTS(FBTTh2)2, 7,7′-(4,4-bis(2-ethylhexyl)-4H-silolo[3,2-b:4,5-b′]dithiophene-2,6-diyl)bis(6-fluoro-4-(5′-hexyl-[2,2′-bithiophen]-5-yl)benzo[c][1,2,5]thiadiazole)], the “change of absorption spectrum on addition of acid” value [1] is reported as “remains effectively unchanged”, the “highest occupied molecular orbital (HOMO)” value [2] is reported as −5.12 eV and the “lowest unoccupied molecular orbital (LUMO)” value [2] is reported as −3.34 eV. The λmax ([3]; solid state (thin film)) was 678 nm, the λonset ([3]; solid state (thin film)) was 800 nm and the optical band gap ([3]; solid state) was 1.55 eV. The λmax ([3]; solution (chloroform)) was 590 nm, the λonset ([3]; solution (chloroform)) was 670 nm and the optical band gap ([3]; solution (chloroform)) was 1.85 eV.
